The text below walks through data of patent US20230399341A1, “7-PHENYL SUBSTITUTED 2-AMINOQUINAZOLINE INHIBITORS OF HPK1” (MERCK SHARP & DOHME LLC, priority 2020, published 2023).

In general, IC50 refers to the concentration that gives 50% inhibition. Low values mean greater potency, high ones weaker potency.

The assay addresses T1, Human HPK1, catalytic domain (Homo sapiens, UniProt Q92918).
T1 sequence (Q92918 1-346): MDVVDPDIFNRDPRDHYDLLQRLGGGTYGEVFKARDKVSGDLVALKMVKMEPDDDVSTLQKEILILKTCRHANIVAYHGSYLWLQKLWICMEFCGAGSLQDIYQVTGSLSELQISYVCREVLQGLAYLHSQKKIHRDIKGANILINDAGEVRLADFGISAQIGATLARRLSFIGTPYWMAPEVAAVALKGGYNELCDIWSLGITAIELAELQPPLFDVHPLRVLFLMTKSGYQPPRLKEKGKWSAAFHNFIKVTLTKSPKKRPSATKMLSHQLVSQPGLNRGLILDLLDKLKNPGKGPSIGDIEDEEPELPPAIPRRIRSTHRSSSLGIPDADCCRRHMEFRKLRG
Nature of the assay: HPK1-SLP76 TR-FRET Assay. It is filed as biochemical. Particulars: 75 pM HPK1, ATP 10 uM, SLP76 10 nM, 30 min pre-incubation, 60 min reaction.
With `COc1cc2c(cc1Nc1ncc3ccc(-c4cccc(C(C)=O)c4)cc3n1)CNCC2` [Compound 1-66, 1-(3-{2-[(6-methoxy-1,2,3,4-tetrahydroisoquinolin-7-yl)amino]quinazolin-7-yl}phenyl)ethan-1-one], the IC50 was determined as 130 nM.
Under `COc1cc2c(cc1Nc1ncc3ccc(-c4cccc(C(=O)NC5CC5)c4)cc3n1)CNCC2` [Compound 1-67, N-cyclopropyl-3-{2-[(6-methoxy-1,2,3,4-tetrahydroisoquinolin-7-yl)amino]quinazolin-7-yl}benzamide] stands 33.9 nM; under `COc1cc2c(cc1Nc1ncc3ccc(-c4ccc5c(c4)C(=O)N(CC4CC4)C5)cc3n1)CNCC2` [Compound 1-68, 2-(cyclopropylmethyl)-6-{2-[(6-methoxy-1,2,3,4-tetrahydroisoquinolin-7-yl)amino]quinazolin-7-yl}-2,3-dihydro-1H-isoindol-1-one], 161 nM.
As to `COc1cc2c(cc1Nc1ncc3ccc(-c4cccc(CN5CCCCC5)c4)cc3n1)CNCC2` [Compound 1-69, N-(6-methoxy-1,2,3,4-tetrahydroisoquinolin-7-yl)-7-{3-[(piperidin-1-yl)methyl]phenyl}quinazolin-2-amine], the midpoint of inhibition, the IC50, lay at 215 nM.
Under `COc1cc2c(cc1Nc1ncc3ccc(-c4ccc5c(c4)OCCO5)cc3n1)CNCC2` [Compound 1-70, 7-(2,3-dihydro-1,4-benzodioxan-6-yl)-N-(6-methoxy-1,2,3,4-tetrahydroisoquinolin-7-yl)quinazolin-2-amine] stands 140 nM; under `COc1cc2c(cc1Nc1ncc3ccc(-c4ccc5c(c4)OCO5)cc3n1)CNCC2` [Compound 1-71, 7-(2H-1,3-benzodioxol-5-yl)-N-(6-methoxy-1,2,3,4-tetrahydroisoquinolin-7-yl)quinazolin-2-amine], 138 nM; under `COc1cc2c(cc1Nc1ncc3ccc(-c4ccc5c(c4)CCO5)cc3n1)CNCC2` [Compound 1-72, 7-(2,3-dihydro-1-benzofuran-5-yl)-N-(6-methoxy-1,2,3,4-tetrahydroisoquinolin-7-yl)quinazolin-2-amine], 53.4 nM.
`COc1cc2c(cc1Nc1ncc3ccc(-c4cccc5nc(N)[nH]c45)cc3n1)CNCC2` [Compound 1-73]: the IC50 came out at 88.5 nM.
Next, `COc1cc2c(cc1Nc1ncc3ccc(-c4cc(C5(CO)CC5)ccc4OC)cc3n1)CNCC2` [Compound 1-74, [1-(4-methoxy-3-{2-[(6-methoxy-1,2,3,4-tetrahydroisoquinolin-7-yl)amino]quinazolin-7-yl}phenyl)cyclo-propyl]methanol]: 143 nM; `COc1cc2c(cc1Nc1ncc3ccc(-c4ccc5c(c4)CCCO5)cc3n1)CNCC2` [Compound 1-75, 7-(3,4-dihydro-2H-1-benzopyran-6-yl)-N-(6-methoxy-1,2,3,4-tetrahydroisoquinolin-7-yl)quinazolin-2-amine]: 91.6 nM.
For the compound `COc1cc2c(cc1Nc1ncc3ccc(-c4ccc5c(c4)COCC5)cc3n1)CNCC2` [Compound 1-76, 7-(3,4-dihydro-1H-2-benzopyran-7-yl)-N-(6-methoxy-1,2,3,4-tetrahydroisoquinolin-7-yl)quinazolin-2-amine], 218 nM corresponded to half-maximal inhibition (IC50). This IC50 is about 2.4-fold higher than that of the compound before.
Turning to `COc1cc2c(cc1Nc1ncc3ccc(-c4cccc(S(=O)(=O)N5CCOCC5)c4)cc3n1)CNCC2` [Compound 1-77, N-(6-methoxy-1,2,3,4-tetrahydroisoquinolin-7-yl)-7-{3-[(morpholin-4-yl)sulfonyl]phenyl}quinazo-lin-2-amine], inhibition was half-maximal at 24.7 nM (IC50).
In the case of `COc1cc2c(cc1Nc1ncc3ccc(-c4cc(S(=O)(=O)N5CCCC5)ccc4C)cc3n1)CNCC2` [Compound 1-78, N-(6-methoxy-1,2,3,4-tetrahydroisoquinolin-7-yl)-7-{2-methyl-5-[(pyrrolidin-1-yl)sulfonyl]phenyl}quinazo-lin-2-amine], the IC50 is 353 nM. Against the preceding compound, the IC50 is about 14-fold higher.
As to `COc1cc2c(cc1Nc1ncc3ccc(-c4cc(S(=O)(=O)N(C)C)ccc4C)cc3n1)CNCC2` [Compound 1-79, 3-{2-[(6-methoxy-1,2,3,4-tetrahydroisoquinolin-7-yl)amino]quinazolin-7-yl}-N,N,4-trimethylbenzene-1-sulfonamide], the 50% inhibitory concentration (IC50) is 148 nM. Against the preceding compound, the IC50 is about 2.4-fold lower.
For the compound `CCN(CC)S(=O)(=O)c1cccc(-c2ccc3cnc(Nc4cc5c(cc4OC)CCNC5)nc3c2)c1` [Compound 1-80, N,N-diethyl-3-{2-[(6-methoxy-1,2,3,4-tetrahydroisoquinolin-7-yl)amino]quinazolin-7-yl}benzene-1-sulfonamide], the IC50 was 23.9 nM.
For the compound `COc1cc2c(cc1Nc1ncc3ccc(-c4ccc(S(=O)(=O)N5CCCC5)cc4)cc3n1)CNCC2` [Compound 1-81, N-(6-methoxy-1,2,3,4-tetrahydroisoquinolin-7-yl)-7-{4-[(pyrrolidin-1-yl)sulfonyl]phenyl}quinazo-lin-2-amine], the IC50 was 192 nM. Compared with the last compound, the IC50 is about 8-fold higher.
For the compound `COc1cc2c(cc1Nc1ncc3ccc(-c4cccc(S(=O)(=O)N5CCCCC5)c4)cc3n1)CNCC2` [Compound 1-82, N-(6-methoxy-1,2,3,4-tetrahydroisoquinolin-7-yl)-7-{3-[(piperidin-1-yl)sulfonyl]phenyl}quinazo-line-2-amine], it took 15.2 nM to reach half-maximal inhibition (IC50).
Consider `COc1cc2c(cc1Nc1ncc3ccc(-c4cccc(C(=O)NCCN5CCCC5)c4)cc3n1)CNCC2` [Compound 1-83, 3-{2-[(6-methoxy-1,2,3,4-tetrahydroisoquinolin-7-yl)amino]quinazolin-7-yl}-N-[2-(pyrrolidin-1-yl)ethyl]benzamide], for which inhibition was half-maximal at 222 nM (IC50).
`CCNS(=O)(=O)c1cccc(-c2ccc3cnc(Nc4cc5c(cc4OC)CCNC5)nc3c2)c1` [Compound 1-84, N-ethyl-3-{2-[(6-methoxy-1,2,3,4-tetrahydroisoquinolin-7-yl)amino]quinazolin-7-yl}benzene-1-sulfonamide] gave an IC50 of 53.7 nM.
On to `COc1cc2c(cc1Nc1ncc3ccc(-c4cc(NC(C)=O)ccc4C)cc3n1)CNCC2` [Compound 1-85, N-(3-{2-[(6-methoxy-1,2,3,4-tetrahydroisoquinolin-7-yl)amino]quinazolin-7-yl}-4-methylphenyl)acetamide], for which the IC50 stood at 462 nM. This IC50 lies about 8.6-fold higher than the previous one.
For `COc1cc2c(cc1Nc1ncc3ccc(-c4cccc(C(=O)N5CCCC5)c4)cc3n1)CNCC2` [Compound 1-86, (3-{2-[(6-methoxy-1,2,3,4-tetrahydroisoquinolin-7-yl)amino]quinazolin-7-yl}phenyl)(pyrrolidin-1-yl)methanone], 44.1 nM corresponded to half-maximal inhibition (IC50).
`COc1cc2c(cc1Nc1ncc3ccc(-c4ccc5c(c4)CCN5)cc3n1)CNCC2` [Compound 1-87, 7-(2,3-dihydro-1H-indol-5-yl)-N-(6-methoxy-1,2,3,4-tetrahydroisoquinolin-7-yl)quinazolin-2-amine]: the IC50 was determined as 49.2 nM.
Under `COc1cc2c(cc1Nc1ncc3ccc(-c4ccc5c(c4)CCC(=O)N5)cc3n1)CNCC2` [Compound 1-88, 6-{2-[(6-methoxy-1,2,3,4-tetrahydroisoquinolin-7-yl)amino]quinazolin-7-yl}-3,4-dihydroquinolin-2(1H)-one] stands 96.9 nM; under `COc1cc2c(cc1Nc1ncc3ccc(-c4cccc(C(C)(C)N)c4)cc3n1)CNCC2` [Compound 1-89, 7-[3-(2-aminopropan-2-yl)phenyl]-N-(6-methoxy-1,2,3,4-tetrahydroisoquinolin-7-yl)quinazolin-2-amine], 156 nM; under `COc1cc2c(cc1Nc1ncc3ccc(-c4cc(C#N)ccc4F)cc3n1)CNCC2` [Compound 1-90, 4-fluoro-3-{2-[(6-methoxy-1,2,3,4-tetrahydroisoquinolin-7-yl)amino]quinazolin-7-yl}benzonitrile], 393 nM.
Compound `COc1cc2c(cc1Nc1ncc3ccc(-c4cccc(N5CCOCC5)c4)cc3n1)CNCC2` [Compound 1-91, N-(6-methoxy-1,2,3,4-tetrahydroisoquinolin-7-yl)-7-[3-(morpholin-4-yl)phenyl]quinazolin-2-amine] returned an IC50 of 210 nM.
`COc1cc2c(cc1Nc1ncc3ccc(-c4ccccc4C4CC4)cc3n1)CNCC2` [Compound 1-92, 7-(2-cyclopropylphenyl)-N-(6-methoxy-1,2,3,4-tetrahydroisoquinolin-7-yl)quinazolin-2-amine]: the IC50 amounted to 92.4 nM.
Next, `COc1cc2c(cc1Nc1ncc3ccc(-c4cc(N)ccc4C)cc3n1)CNCC2` [Compound 1-93, 7-(5-amino-2-methylphenyl)-N-(6-methoxy-1,2,3,4-tetrahydroisoquinolin-7-yl)quinazolin-2-amine]: 481 nM.
`COc1cc2c(cc1Nc1ncc3ccc(-c4c(C)cccc4F)cc3n1)CNCC2` [Compound 1-94, 7-(2-fluoro-6-methylphenyl)-N-(6-methoxy-1,2,3,4-tetrahydroisoquinolin-7-yl)quinazolin-2-amine] yielded an IC50 of 81.3 nM. This IC50 is about 5.9-fold lower than that of the compound before.
As for `COc1cc2c(cc1Nc1ncc3cc(F)c(-c4cnc5c(c4C)NCCO5)cc3n1)CN(C)CC2` [Compound 1-95, 6-fluoro-N-(6-methoxy-2-methyl-1,2,3,4-tetrahydroisoquinolin-7-yl)-7-(8-methyl-2,3-dihydro-1H-pyrido[2,3-b][1,4]oxazin-7-yl)quinazolin-2-amine], it took 2.32 nM to reach half-maximal inhibition (IC50).
Regarding `COc1cc2c(cc1Nc1ncc3cc(Cl)c(-c4cnc5c(c4C)NCCO5)cc3n1)CN(C)CC2` [Compound 1-96, 6-chloro-N-(6-methoxy-2-methyl-1,2,3,4-tetrahydroisoquinolin-7-yl)-7-(8-methyl-2,3-dihydro-1H-pyrido[2,3-b][1,4]oxazin-7-yl)quinazolin-2-amine], half-maximal inhibition (IC50) required 1.85 nM.
